Results reported in patent US10933113B2, “Use of a compound, pharmaceutical composition, and therapeutic method for the treatment or prevention of convulsions” (PROTEIMAX BIO[…]A, priority 2016, dated 2021).

System: pilocarpine model
Assay: pilocarpine model, oral test compound 10 minutes before intraperitoneal pilocarpine
Format: in vivo, Mus musculus or mouse
Method: In some instances, the anticonvulsive effects of the composition of the invention have been evaluated in vivo upon oral administration to animals. The pharmaceutical composition of the invention was administered to mammals (Mus musculus or mouse) with oral dose of treatment, as compared to other compounds or to saline control. In these experiments, the test compounds were administered orally 10 minutes prior to the (intraperitoneal) administration of pilocarpine. Pilocarpine hydrochloride (320 mg/kg, Merck), dissolved in 0.9% sterile saline, was given intraperitoneally for induction of SE (status epileticus) (Turski et al., 1983). In the Turski model, the neurotoxic effects begin about 15-25 minutes after the injection of Pilo, with the occurrence of motor and limbic seizures, the animals evolving to a state of continuous (clonic) seizures that characterize SE Sanabria and Cavalheiro, 2000).
In this embodiment, the anticonvulsant effect of the composition of the invention prepared according to example 1 was evaluated by prior administration of the inventive composition and subsequent administration of pilocarpine to animals. Administration of pilocarpine leads to severe brain damage, neurotoxicity, and usually culminates in the death of animals.
The composition of the invention prepared according to Example 1 was pre-administered to the animals.

[1] = 1000 μg/kg oral, group n=5, pilocarpine 320 mg/kg i.p.

| Compound | survival time compared with control (FIG. 1) (600 μg/kg oral) | number of animals that died in the group [1] | remaining animals that remained alive for more than a week [1] | mean survival time for the group (1000 μg/kg oral, versus control, Hp 600 μg/kg, DIIADDEPLT 1000 μg/kg) | occurrence of typical side effects of other anticonvulsants, such as prostration and nasal bleeding (oral administration, mice) | brain injury related symptoms and survival after pilocarpine (prior oral administration of the composition of Example 1) | time for the occurrence of the first salivation (FIG. 4) (prior oral administration, pilocarpine-induced salivation) | time for the occurrence of the first seizure (FIG. 6), P vs Control, Hp 600 μg/kg, Pep19 1000 μg/kg (starred group, by exclusion Hp 1000 μg/kg oral) | survival time compared with control (FIG. 1) (1000 μg/kg oral) |
| --- | --- | --- | --- | --- | --- | --- | --- | --- | --- |
| CC(C)C[C@H](NC(=O)[C@H](Cc1ccccc1)NC(=O)[C@H](CCCCN)NC(=O)[C@H](Cc1ccccc1)NC(=O)[C@H](CC(N)=O)NC(=O)[C@@H](NC(=O)[C@@H]1CCCN1)C(C)C)C(=O)N[C@@H](CO)C(=O)N[C@@H](Cc1cnc[nH]1)C(=O)O [Hp, PVNFKFLSH] | not statistically significant | one | 4 | significantly different and higher than the others | has not been observed | the vast majority of the animals subjected to these experiments had no brain injury related symptoms and survived without apparent damage | substantial change in the time profile for the occurrence of the first salivation | < 0.001 |  |
| DIIADDEPLT [peptide used as another control, reference compound] |  |  |  |  |  |  |  |  | not statistically significant |
